Reference: patent US8895585B2, “Nicotinamide derivative or salt thereof” (FUJIFILM Corporation, priority 2010, dated 2014)

biological target: T1, glutathione S-transferase (GST)-fused full-length human Syk protein (Homo sapiens, UniProt P43405); experiment: Syk enzyme assay; assay type: biochemical; conditions: Syk enzyme assay, Test Example 1; read-out: IC50 of Syk-inhibitory activity
T1 construct: (GST)-fused full-length human Syk protein; GST (glutathione S-transferase); purchased Carna Biosciences
In short: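 GST-tagged full-length human Syk (baculovirus) preincubated with compound 15 min at room temperature (pH 7.0, 10 mM MgCl2), then reacted 40 min with 0.4 μM biotinylated peptide substrate and 27 μM ATP (final). Phosphorylation read by HTRF (615/665 nm) after EDTA stop; IC50 reported.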

| SMILES | IC50 |
| --- | --- |
| CS(=O)(=O)Nc1cccc2cc(Nc3nc(N[C@@H]4CCCC[C@@H]4N)c(F)cc3C(N)=O)cnc12 (relative stereo) [Example 41-2, 6-(cis-2-aminocyclohexylamino)-5-fluoro-2-((8-(methylsulphonamide)quinolin-3-yl)amino)nicotinamide] | < 0.01 µM |
| NC(=O)c1cc(F)c(NC2CCCCC2N)nc1Nc1cncc(NC(=O)c2cc3ccccc3o2)c1 (stereo not shown) [Example 027-041] | < 0.01 µM |
| NC(=O)c1cc(F)c(N[C@@H]2CCCC[C@@H]2N)nc1Nc1cc(OCc2ccccc2)c2ncccc2c1 (relative stereo) [Example 004-140, 6-(cis-2-aminocyclohexylamino)-2-((8-(benzyloxy)quinolin-6-yl)amino)-5-fluoronicotinamide] | 0.01 to 0.05 µM |
| NC(=O)c1cc(F)c(NC2CCCCC2N)nc1Nc1ccc2cnn(Cc3ccccc3)c2c1 (stereo not shown) [Example 002-047] | 0.01 to 0.05 µM |
| NC(=O)c1cc(F)c(N[C@@H]2CCCC[C@@H]2N)nc1Nc1ccc2nccn2c1 (relative stereo) [Example 004-130, 6-(cis-2-aminocyclohexylamino)-5-fluoro-2-((imidazo[1,2-a]pyridin-6-yl)amino)-nicotinamide] | 0.1 to 1 µM |
| CC[C@H](Nc1nc(Nc2ccc3ncccc3c2)c(C(N)=O)cc1F)[C@H](C)N [Example 006-179, 6-(((2S,3S)-2-aminopentan-3-yl)amino)-5-fluoro-2-((quinolin-6-yl)amino)nicotinamide] | 0.05 to 0.1 µM |
| CCCCOCCOc1ccc2cc(Nc3nc(NC4CCCCC4N)c(F)cc3C(N)=O)ccc2n1 (stereo not shown) [Example 002-108] | 0.01 to 0.05 µM |
| CC[C@@H](Nc1nc(Nc2cncc(-c3cc(OC)ccc3F)c2)c(C(N)=O)cc1F)[C@H](C)N [Example 006-280, 6-(((2S,3R)-2-aminopentan-3-yl)amino)-5-fluoro-2-((5-(2-fluoro-5-methoxyphenyl)pyridin-3-yl)amino)nicotinamide] | < 0.01 µM |
| CCCc1nn(C2CC2)c2ccc(Nc3nc(N[C@H](CC4CC4)[C@H](C)N)c(F)cc3C(N)=O)cc12 [Example 006-482, 6-(((2R,3S)-3-amino-1-cyclopropylbutan-2-yl)amino)-2-((1-cyclopropyl-3-propyl-1H-indazol-5-yl)amino)-5-fluoronicotinamide] | < 0.01 µM |
| CCCC[C@H](CN)Nc1nc(Nc2ccc3c(cnn3CC(F)F)c2)c(C(N)=O)cc1F [Example 006-421, (R)-6-((1-aminohexan-2-yl)amino)-2-((1-(2,2-difluoroethyl)-1H-indazol-5-yl)amino)-5-fluoronicotinamide] | 0.05 to 0.1 µM |
| CC[C@H](N)[C@@H](CC)Nc1nc(Nc2cccc3c2cnn3C)c(C(N)=O)cc1F [Example 006-367, 6-(((3R,4S)-4-aminohexan-3-yl)amino)-5-fluoro-2-((1-methyl-1H-indazol-4-yl)amino)nicotinamide] | 0.01 to 0.05 µM |
| NC(=O)CNc1nc(Nc2ccc3ncccc3c2)c(C(N)=O)cc1F [Example 012-019] | 0.05 to 0.1 µM |
| CCOc1ncc(Nc2nc(N[C@@H]3CCCC[C@@H]3N)c(F)cc2C(N)=O)cc1Cl [Example 006-570, 6-(((1R,2S)-2-aminocyclohexyl)amino)-2-((5-chloro-6-ethoxypyridin-3-yl)amino)-5-fluoronicotinamide] | 0.01 to 0.05 µM |
| NC(=O)c1cc(F)c(N[C@H](Cc2ccccc2)C(N)=O)nc1Nc1ccnc2c1ccn2CCN1CCOCC1 [Example 004-045] | 0.01 to 0.05 µM |
| NC(=O)c1cc(F)c(N[C@@H]2CCCC[C@@H]2N)nc1Nc1cncc(-c2cccc(Cl)c2F)c1 (relative stereo) [Example 004-206, 6-(cis-2-aminocyclohexylamino)-2-((5-(3-chloro-2-fluorophenyl)pyridin-3-yl)amino)-5-fluoronicotinamide] | < 0.01 µM |
| Cn1ccc2c(Nc3nc(N[C@@H]4CCCC[C@@H]4N)c(F)cc3C(N)=O)cccc21 (relative stereo) [Example 006-059, 6-(cis-2-aminocyclohexylamino)-5-fluoro-2-((1-methyl-1H-indol-4-yl)amino)nicotinamide] | < 0.01 µM |
| NC(=O)c1cc(F)c(NC2CCCCC2N)nc1Nc1cncc(NC(=O)c2ccc3occc3c2)c1 (stereo not shown) [Example 027-037] | 0.01 to 0.05 µM |
| NC(=O)c1cc(F)c(NCCO)nc1Nc1ccc2ncccc2c1 [Example 012-021] | < 0.01 µM |
| NC(=O)c1cc(F)c(N[C@@H]2CCCC[C@@H]2N)nc1Nc1cnc(N2CCOCC2)c(-n2ccnn2)c1 [Example 006-534, 6-(((1R,2S)-2-aminocyclohexyl)amino)-5-fluoro-2-((6-morpholino-5-(1H-1,2,3-triazol-1-yl)pyridin-3-yl)amino)nicotinamide] | 0.1 to 1 µM |
| COc1ccc(-c2cc(Nc3nc(N[C@@H](CN)CC(C)C)c(F)cc3C(N)=O)ccn2)cc1 [Example 006-326, (R)-6-((1-amino-4-methylpentan-2-yl)amino)-5-fluoro-2-((2-(4-methoxyphenyl)pyridin-4-yl)amino)nicotinamide] | < 0.01 µM |
| NC(=O)c1cc(F)c(N[C@@H]2CCCC[C@@H]2N)nc1Nc1cnc2c(NS(=O)(=O)c3ccc(Cl)cc3)cccc2c1 (relative stereo) [Example 41-6, 6-(cis-2-aminocyclohexylamino)-2-((8-(4-chlorophenylsulphonamide)quinolin-3-yl)amino)-5-fluoronicotinamide] | 0.05 to 0.1 µM |

| SMILES | IC50 |
| --- | --- |
| COc1cc(Nc2nc(NCC(N)=O)c(F)cc2C(N)=O)cc(OC)c1 [Example 016-005] | 0.1 to 1 µM |
| NC[C@@H](CC1CC1)Nc1nc(Nc2cncc(-c3ccccc3)c2)c(C(N)=O)cc1F [Example 006-283, (R)-6-((1-amino-3-cyclopropylpropan-2-yl)amino)-5-fluoro-2-((5-phenylpyridin-3-yl)amino)nicotinamide] | 0.01 to 0.05 µM |
| Cc1ccccc1Nc1nc(NCCN)c(F)cc1C(N)=O [Example 008-003] | 0.1 to 1 µM |
| COc1cc(Nc2nc(NCc3ccc(N)cc3)c(F)cc2C(N)=O)cc(OC)c1 [Example 016-015] | 0.1 to 1 µM |
| CC(C)COc1nccc2cc(Nc3nc(N[C@@H]4CCCC[C@@H]4N)c(F)cc3C(N)=O)ccc12 (relative stereo) [Example 004-167, 6-(cis-2-aminocyclohexylamino)-5-fluoro-2-((1-isobutoxyisoquinolin-6-yl)amino)-nicotinamide] | < 0.01 µM |
| COCCn1nc(F)c2c(Nc3nc(N[C@H](CC4CC4)[C@H](C)N)c(F)cc3C(N)=O)cccc21 [Example 006-490, 6-(((2R,3S)-3-amino-1-cyclopropylbutan-2-yl)amino)-5-fluoro-2-((3-fluoro-1-(2-methoxyethyl)-1H-indazol-4-yl)amino)nicotinamide] | 0.05 to 0.1 µM |
| CNc1nc(Nc2ccc3ncccc3c2)c(C(N)=O)cc1F [Example 012-022] | 0.1 to 1 µM |
| COc1nc2ccc(Nc3nc(NC4CCCCC4N)c(F)cc3C(N)=O)cc2nc1OC (stereo not shown) [Example 002-119] | < 0.01 µM |
| NC(=O)c1cc(F)c(N[C@@H]2CCCC[C@@H]2N)nc1Nc1ccc2c(OCC3CCCO3)nccc2c1 (relative stereo) [Example 004-171, 6-(cis-2-aminocyclohexylamino)-5-fluoro-2-((1-((tetrahydrofuran-2-yl)-methoxy)isoquinolin-6-yl)amino)nicotinamide] | < 0.01 µM |
| NC(=O)c1cc(F)c(N[C@H](Cc2ccccc2)C(N)=O)nc1Nc1ccc2ncccc2c1 [Example 012-012] | 0.01 to 0.05 µM |
| COc1cc(Nc2nc(NC3CCN(C(=O)OCc4ccccc4)CC3N)c(F)cc2C(N)=O)ccn1 [Example 006-530, (3S,4R)-benzyl 3-amino-4-((5-carbamoyl-3-fluoro-6-((2-methoxypyridin-4-yl)amino)pyridin-2-yl)amino)piperidine-1-carboylate and (3R,4S)-benzyl 3-amino-4-((5-carbamoyl-3-fluoro-6-((2-methoxypyridin-4-yl)amino)pyridin-2-yl)amino)piperidine-1-carboxylate(=1:1)] | < 0.01 µM |
| NCCNCCNc1nc(Nc2ccnc(-n3nccn3)c2)c(C(N)=O)cc1F [Example 002-129] | 0.1 to 1 µM |
| NC(=O)c1cc(F)c(N[C@@H]2CCCC[C@@H]2N)nc1Nc1cncc(-c2ccc(Cl)cc2)c1 (relative stereo) [Example 004-148, 6-(cis-2-aminocyclohexylamino)-2-((5-(4-chlorophenyl)pyridin-3-yl)amino)-5-fluoronicotinamide] | 0.01 to 0.05 µM |
| COc1ccc(C(=O)Nc2cncc(Nc3nc(NC4CCCCC4N)c(F)cc3C(N)=O)c2)c(OC)c1 (stereo not shown) [Example 027-019] | 0.01 to 0.05 µM |
| CN(C)C(=O)c1cc2c(Nc3nc(N[C@@H]4CCCC[C@@H]4N)c(F)cc3C(N)=O)ccnc2n1C [Example 029-009] | 0.1 to 1 µM |
| COCC(C)Oc1ccc2ccc(Nc3nc(NC4CCCCC4N)c(F)cc3C(N)=O)cc2n1 (stereo not shown) [Example 002-091] | < 0.01 µM |
| CCc1nc2ccc(Nc3nc(NC4CCCCC4N)c(F)cc3C(N)=O)cc2nc1CC (stereo not shown) [Example 002-124] | < 0.01 µM |
| NC(=O)c1cc(F)c(NC2CCCCC2N)nc1Nc1cccc(Cl)c1 (stereo not shown) [Example 008-008] | < 0.01 µM |
| NC(=O)c1cc(F)c(N[C@@H]2CCCC[C@@H]2N)nc1Nc1cnc(O)c(-n2nccn2)c1 [Example 006-504, 6-(((1R,2S)-2-aminocyclohexyl)amino)-5-fluoro-2-((6-hydroxy-5-(2H-1,2,3-triazol-2-yl)pyridin-3-yl)amino)nicotinamide] | 0.05 to 0.1 µM |
| CC(C)COc1ccc2cc(Nc3nc(NC4CCCCC4N)c(F)cc3C(N)=O)ccc2n1 (stereo not shown) [Example 002-105] | 0.01 to 0.05 µM |
| NC(=O)c1cc(F)c(NC2CCCCC2N)nc1Nc1cncc(NC(=O)c2cccc(Cl)c2)c1 (stereo not shown) [Example 027-008] | 0.01 to 0.05 µM |

same assay, conditions: read-out: Syk-inhibitory activity (IC50)

| SMILES | IC50 |
| --- | --- |
| COc1cc(Nc2nc(N[C@@H](C(N)=O)c3ccccc3)c(F)cc2C(N)=O)cc(OC)c1 [Example 16-17, 6-(((1R)-2-amino-2-oxo-1-phenylethyl)amino)-2-((3,5-dimethoxyphenyl)amino)-5-fluoronicotinamide] | ≤ 1 µM |
